From PMC7230911, “Meroterpenoids from the Brown Alga Cystoseira usneoides as Potential Anti-Inflammatory and Lung Anticancer Agents” (Marine Drugs, 2020)

Legend:
iNOS = iNOS protein expression in LPS-stimulated THP-1 macrophages (western blot); type: cell-based, human; settings: 8 μg/mL, LPS-stimulated THP-1 cells
Procedure: COX-2 is the key enzyme regulating the production of prostaglandins, which are the central mediators of inflammation. On the other hand, iNOS enzyme represents an important molecular target closely involved in inflammatory responses. Thus, the effect of the AMTs 1–8 on LPS-induced COX-2 and iNOS protein expression was investigated by western blot analysis.
Figure 3 Effect of meroterpenoids 1–8 on LPS-induced COX-2 and iNOS protein expression in THP-1 macrophages. Cells were pretreated for 1 h with the compounds (1, 2, 3, 4, 7, and 8 at 8 μg/mL; 5 and 6 at 4 μg/mL) and then stimulated with LPS (1 μg/mL). Cytosolic lysates from 24 h-stimulated cells were separated on 10% SDS-PAGE. COX-2, iNOS, and β-actin were detected by western blot analysis. Data are expressed as means ± SE from three independent experiments. Statistical significance is indicated (+++ p < 0.001 and ++ p < 0.01, vs. Control, respectively; * p < 0.05, and ** p < 0.01 vs. Control + LPS).
Western blotting was used to measure the protein levels of COX-2 and iNOS [65]. […] Proteins concentration in cell lysates was determined by Bio-Rad Protein Assay, based on the method of Bradford (BioRad, Richmond CA, USA). […] The protein band densities were quantified using a Scientific Imaging Systems (Biophotonics ImageJ Analysis Software, National Institute of Mental Health, Bethesda, MD, USA).

colitis = system: colitis; set-up: method as in PMID 27527191; settings: down-regulating TNF-α, IL-1ß, IL-10, suppressing COX-2 and iNOS expression in mouse colon tissue; cited from earlier work

## COc1c(C)cc(O)cc1C/C=C(\C)CC(=O)/C=C(\C)CCCC(C)(O)C(=O)/C=C/C(C)(C)O (centres unmarked) [Compound 2, 11-hydroxy-1’-O-methylamentadione]
iNOS
  effect on iNOS (in words): significantly inhibited
colitis
  in vivo effect in colitis (in words): intestinal anti-inflammatory activity in colitis
